The NIST ThermoML archive (doi:10.1021/je500512f)
Numbers after ± are expanded uncertainties.

Assay: molar heat capacity at constant pressure
Conditions: Liquid, Twin Calvet

With `COC` [dimethyl ether] the “molar heat capacity at constant pressure” value (305.15 K, 1460 kPa) was 113.19 ± 6.2 J/K/mol, the “molar heat capacity at constant pressure” value (305.15 K, 2030 kPa) was 112.82 ± 6.2 J/K/mol and the “molar heat capacity at constant pressure” value (305.15 K, 2520 kPa) was 112.13 ± 6.2 J/K/mol. The “molar heat capacity at constant pressure” value (305.15 K, 2930 kPa) was 112.36 ± 6.2 J/K/mol, the “molar heat capacity at constant pressure” value (305.15 K, 3540 kPa) was 111.99 ± 6.1 J/K/mol and the “molar heat capacity at constant pressure” value (305.15 K, 4060 kPa) was 111.53 ± 6.1 J/K/mol. The “molar heat capacity at constant pressure” value (305.15 K, 4580 kPa) was 111.26 ± 6.1 J/K/mol, the “molar heat capacity at constant pressure” value (305.15 K, 5020 kPa) was 111.02 ± 6.1 J/K/mol and the “molar heat capacity at constant pressure” value (310.15 K, 1460 kPa) was 113.47 ± 6.2 J/K/mol. The “molar heat capacity at constant pressure” value (310.15 K, 2030 kPa) was 112.91 ± 6.2 J/K/mol, the “molar heat capacity at constant pressure” value (310.15 K, 2520 kPa) was 112.31 ± 6.2 J/K/mol and the “molar heat capacity at constant pressure” value (310.15 K, 2930 kPa) was 112.45 ± 6.2 J/K/mol. For the same compound, the “molar heat capacity at constant pressure” value (310.15 K, 3540 kPa) was 111.72 ± 6.1 J/K/mol, the “molar heat capacity at constant pressure” value (310.15 K, 4060 kPa) was 111.21 ± 6.1 J/K/mol and the “molar heat capacity at constant pressure” value (310.15 K, 4580 kPa) was 111.44 ± 6.1 J/K/mol. For the same compound, the “molar heat capacity at constant pressure” value (310.15 K, 5020 kPa) was 111.3 ± 6.1 J/K/mol, the “molar heat capacity at constant pressure” value (315.15 K, 1460 kPa) was 114.8 ± 6.3 J/K/mol and the “molar heat capacity at constant pressure” value (315.15 K, 2030 kPa) was 114.11 ± 6.3 J/K/mol. For the same compound, the “molar heat capacity at constant pressure” value (315.15 K, 2520 kPa) was 113.6 ± 6.2 J/K/mol, the “molar heat capacity at constant pressure” value (315.15 K, 2930 kPa) was 113.47 ± 6.2 J/K/mol and the “molar heat capacity at constant pressure” value (315.15 K, 3540 kPa) was 112.78 ± 6.2 J/K/mol. The “molar heat capacity at constant pressure” value (315.15 K, 4060 kPa) was 112.13 ± 6.2 J/K/mol, the “molar heat capacity at constant pressure” value (315.15 K, 4580 kPa) was 112.45 ± 6.2 J/K/mol and the “molar heat capacity at constant pressure” value (315.15 K, 5020 kPa) was 112.22 ± 6.2 J/K/mol. For the same compound, the “molar heat capacity at constant pressure” value (320.15 K, 1460 kPa) was 116.23 ± 6.4 J/K/mol, the “molar heat capacity at constant pressure” value (320.15 K, 2030 kPa) was 115.45 ± 6.4 J/K/mol and the “molar heat capacity at constant pressure” value (320.15 K, 2520 kPa) was 115.03 ± 6.3 J/K/mol. For the same compound, the “molar heat capacity at constant pressure” value (320.15 K, 2930 kPa) was 114.89 ± 6.3 J/K/mol, the “molar heat capacity at constant pressure” value (320.15 K, 3540 kPa) was 114.02 ± 6.3 J/K/mol and the “molar heat capacity at constant pressure” value (320.15 K, 4060 kPa) was 113.37 ± 6.2 J/K/mol. For the same compound, the “molar heat capacity at constant pressure” value (320.15 K, 4580 kPa) was 113.56 ± 6.2 J/K/mol, the “molar heat capacity at constant pressure” value (320.15 K, 5020 kPa) was 113.28 ± 6.2 J/K/mol and the “molar heat capacity at constant pressure” value (325.15 K, 1460 kPa) was 117.84 ± 6.4 J/K/mol. For the same compound, the “molar heat capacity at constant pressure” value (325.15 K, 2030 kPa) was 116.92 ± 6.4 J/K/mol, the “molar heat capacity at constant pressure” value (325.15 K, 2520 kPa) was 116.65 ± 6.4 J/K/mol and the “molar heat capacity at constant pressure” value (325.15 K, 2930 kPa) was 116.05 ± 6.4 J/K/mol. The “molar heat capacity at constant pressure” value (325.15 K, 3540 kPa) was 115.31 ± 6.3 J/K/mol, the “molar heat capacity at constant pressure” value (325.15 K, 4060 kPa) was 114.57 ± 6.3 J/K/mol and the “molar heat capacity at constant pressure” value (325.15 K, 4580 kPa) was 114.66 ± 6.3 J/K/mol. For the same compound, the “molar heat capacity at constant pressure” value (325.15 K, 5020 kPa) was 114.3 ± 6.3 J/K/mol, the “molar heat capacity at constant pressure” value (330.15 K, 2030 kPa) was 118.86 ± 6.5 J/K/mol and the “molar heat capacity at constant pressure” value (330.15 K, 2520 kPa) was 118.49 ± 6.5 J/K/mol. For the same compound, the “molar heat capacity at constant pressure” value (330.15 K, 2930 kPa) was 117.75 ± 6.4 J/K/mol, the “molar heat capacity at constant pressure” value (330.15 K, 3540 kPa) was 117.01 ± 6.4 J/K/mol and the “molar heat capacity at constant pressure” value (330.15 K, 4060 kPa) was 116.05 ± 6.4 J/K/mol. The “molar heat capacity at constant pressure” value (330.15 K, 4580 kPa) was 116.05 ± 6.4 J/K/mol, the “molar heat capacity at constant pressure” value (330.15 K, 5020 kPa) was 115.59 ± 6.4 J/K/mol and the “molar heat capacity at constant pressure” value (335.15 K, 2030 kPa) was 121.34 ± 6.7 J/K/mol. The “molar heat capacity at constant pressure” value (335.15 K, 2520 kPa) was 120.84 ± 6.6 J/K/mol, the “molar heat capacity at constant pressure” value (335.15 K, 2930 kPa) was 120.15 ± 6.6 J/K/mol and the “molar heat capacity at constant pressure” value (335.15 K, 3540 kPa) was 119.27 ± 6.5 J/K/mol. The “molar heat capacity at constant pressure” value (335.15 K, 4060 kPa) was 118.03 ± 6.5 J/K/mol, the “molar heat capacity at constant pressure” value (335.15 K, 4580 kPa) was 117.98 ± 6.5 J/K/mol and the “molar heat capacity at constant pressure” value (335.15 K, 5020 kPa) was 117.38 ± 6.4 J/K/mol. The “molar heat capacity at constant pressure” value (340.15 K, 2520 kPa) was 123.92 ± 6.8 J/K/mol, the “molar heat capacity at constant pressure” value (340.15 K, 2930 kPa) was 123.09 ± 6.8 J/K/mol and the “molar heat capacity at constant pressure” value (340.15 K, 3540 kPa) was 122.08 ± 6.7 J/K/mol. For the same compound, the “molar heat capacity at constant pressure” value (340.15 K, 4060 kPa) was 120.65 ± 6.6 J/K/mol, the “molar heat capacity at constant pressure” value (340.15 K, 4580 kPa) was 120.52 ± 6.6 J/K/mol and the “molar heat capacity at constant pressure” value (340.15 K, 5020 kPa) was 119.82 ± 6.6 J/K/mol. The “molar heat capacity at constant pressure” value (345.15 K, 2520 kPa) was 127.75 ± 7 J/K/mol, the “molar heat capacity at constant pressure” value (345.15 K, 2930 kPa) was 126.55 ± 7 J/K/mol and the “molar heat capacity at constant pressure” value (345.15 K, 3540 kPa) was 125.35 ± 6.9 J/K/mol. The “molar heat capacity at constant pressure” value (345.15 K, 4060 kPa) was 123.92 ± 6.8 J/K/mol, the “molar heat capacity at constant pressure” value (345.15 K, 4580 kPa) was 123.65 ± 6.8 J/K/mol and the “molar heat capacity at constant pressure” value (345.15 K, 5020 kPa) was 122.86 ± 6.7 J/K/mol. For the same compound, the “molar heat capacity at constant pressure” value (350.15 K, 2930 kPa) was 130.65 ± 7.2 J/K/mol, the “molar heat capacity at constant pressure” value (350.15 K, 3540 kPa) was 129.13 ± 7.1 J/K/mol and the “molar heat capacity at constant pressure” value (350.15 K, 4060 kPa) was 127.75 ± 7 J/K/mol. The “molar heat capacity at constant pressure” value (350.15 K, 4580 kPa) was 127.19 ± 7 J/K/mol, the “molar heat capacity at constant pressure” value (350.15 K, 5020 kPa) was 126.27 ± 6.9 J/K/mol and the “molar heat capacity at constant pressure” value (355.15 K, 3540 kPa) was 133.46 ± 7.3 J/K/mol. The “molar heat capacity at constant pressure” value (355.15 K, 4060 kPa) was 131.94 ± 7.2 J/K/mol, the “molar heat capacity at constant pressure” value (355.15 K, 4580 kPa) was 131.06 ± 7.2 J/K/mol and the “molar heat capacity at constant pressure” value (355.15 K, 5020 kPa) was 129.91 ± 7.1 J/K/mol. The “molar heat capacity at constant pressure” value (360.15 K, 4060 kPa) was 136.82 ± 7.5 J/K/mol, the “molar heat capacity at constant pressure” value (360.15 K, 4580 kPa) was 135.67 ± 7.5 J/K/mol and the “molar heat capacity at constant pressure” value (360.15 K, 5020 kPa) was 134.15 ± 7.4 J/K/mol. For the same compound, the “molar heat capacity at constant pressure” value (365.15 K, 4060 kPa) was 144.01 ± 7.9 J/K/mol, the “molar heat capacity at constant pressure” value (365.15 K, 4580 kPa) was 142.31 ± 7.8 J/K/mol and the “molar heat capacity at constant pressure” value (365.15 K, 5020 kPa) was 140.42 ± 7.7 J/K/mol.
